Where two headings read alike, the source gives them in different places.
How the values were obtained:
[1] = target: FGFR4 (h) (Homo sapiens, UniProt P22455); assay: FGFR4 (enzymatic assay), TR-FRET; format: biochemical; details: read-out: FGFR 4 pIC50 (converted)
Description: In a final reaction volume of 30 μL, FGFR4 (h) (60 ng/ml) was incubated with 50 mM HEPES pH 7.5, 6 mM MnCl2, 1 mM DTT, 0.1 mM Na3VO4, 0.01% Triton-X-100, 500 nM Btn-Flt3 and 5 μM ATP in the presence of compound (1% DMSO final). […] Time-Resolved Fluorescence Resonance Energy Transfer (TR-FRET) signal (ex340 nm. Em 620 nm, em 655 nm) was measured afterwards and results are expressed in RFU (Relative Fluorescence Units).

[2] = target: Ba/F3-FGFR3-transfected cells (Homo sapiens, UniProt P22607); assay: Ba/F3-FGFR3 (minus IL3) cellular proliferation assay, Alamar Blue; format: cell-based; details: for BAF3-FGFR 3 (MIN IL3) 384 well pIC50: minus IL3, 384 well; for BAF3-FGFR 3 (MIN IL3) 96 well pIC50: minus IL3, 96 well
Summary of the method: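 FGFR3-Ba/F3 cells, 20000/well (384-well) or 10000/well (96-well), phenol red free RPMI + 10% FBS; cpd in DMSO; 24 h, 37 °C/5% CO2; Alamar Blue 4 h; RFU ex540/em590.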

[3] = target: T1, Ba/F3-Flt3-transfected cells (Homo sapiens, UniProt P36888, cells depend on it, form not given); assay: Ba/F3-Flt3 (minus IL3) cellular proliferation assay, Alamar Blue; format: cell-based
T1 sequence (P36888 1-993): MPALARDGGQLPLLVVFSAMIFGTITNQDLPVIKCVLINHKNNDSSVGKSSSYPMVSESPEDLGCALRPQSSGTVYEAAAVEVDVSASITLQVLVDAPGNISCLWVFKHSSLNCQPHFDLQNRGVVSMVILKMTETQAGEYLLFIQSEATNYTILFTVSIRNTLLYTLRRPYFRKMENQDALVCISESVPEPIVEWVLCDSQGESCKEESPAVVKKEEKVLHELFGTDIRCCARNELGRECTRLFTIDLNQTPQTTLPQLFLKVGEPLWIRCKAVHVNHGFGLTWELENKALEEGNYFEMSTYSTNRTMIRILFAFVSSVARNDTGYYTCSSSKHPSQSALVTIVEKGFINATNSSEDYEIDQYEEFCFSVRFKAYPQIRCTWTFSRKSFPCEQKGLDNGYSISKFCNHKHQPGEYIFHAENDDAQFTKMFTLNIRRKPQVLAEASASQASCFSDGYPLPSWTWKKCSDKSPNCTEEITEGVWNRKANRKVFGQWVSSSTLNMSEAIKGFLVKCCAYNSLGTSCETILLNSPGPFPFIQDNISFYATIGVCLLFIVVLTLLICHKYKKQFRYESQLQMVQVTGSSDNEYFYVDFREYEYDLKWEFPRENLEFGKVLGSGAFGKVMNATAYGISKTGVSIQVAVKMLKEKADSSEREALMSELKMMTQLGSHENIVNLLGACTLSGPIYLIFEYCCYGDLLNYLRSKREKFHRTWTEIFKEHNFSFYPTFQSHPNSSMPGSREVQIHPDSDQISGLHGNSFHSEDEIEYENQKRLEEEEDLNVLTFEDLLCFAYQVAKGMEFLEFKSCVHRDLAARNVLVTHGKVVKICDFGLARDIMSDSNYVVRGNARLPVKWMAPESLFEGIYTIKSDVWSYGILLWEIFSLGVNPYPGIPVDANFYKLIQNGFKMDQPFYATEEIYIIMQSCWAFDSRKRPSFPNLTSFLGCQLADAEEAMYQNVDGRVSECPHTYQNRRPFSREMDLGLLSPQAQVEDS

[4] = tested on: Ba/F3-FGFR3-transfected cells in the presence of 10 ng/ml murine IL3; assay: Ba/F3-FGFR3 (plus IL3) cellular proliferation counterscreen, Alamar Blue; format: cell-based; details: for IC50: Mus musculus
Description: Ba/F3-FGFR3 (Minus IL3 or Plus IL3) (Cellular Proliferation Assay)
(§1) In a 384 well plate, 100 nl of compound dilution in DMSO was sprayed before adding 50 μl cell culture medium (phenol red free RPMI-1640, 10% FBS, 2 mM L-Glutamine and 50 μg/ml Gentamycin) containing 20000 cells per well of Ba/F3-FGFR3-transfected cells. Cells were put in an incubator at 37° C. and 5% CO2. After 24 hours, 10 μl of Alamar Blue solution (0.5 mM K3Fe(CN)6, 0.5 mM KaFe(CN)6, 0.15 mM Resazurin and 100 mM Phosphate Buffer) was added to the wells, incubated for 4 hours at 37° C. and 5% CO2 before RFU's (Relative Fluorescence Units) (ex. 540 nm., em. 590 nm.) were measured in a flurorescence plate reader.
As a counterscreen the same experiment was performed in the presence of 10 ng/ml murine IL3.
as §1, with “a 96” for “a 384”, “plate, 180” for “plate, 100 nl of compound dilution in DMSO was sprayed before adding 50”, “containing 10000” for “containing 20000”, “Ba/F3-FGFR3-transfected cells were pipette and 20 μl of compound dilution in DMSO was added.” for “Ba/F3-FGFR3-transfected cells.”, “hours, 40” for “hours, 10”

[5] = plus 10 ng/ml murine IL3, 384 well, read-out: BAF3-FGFR 3 (PLUS IL3) 384 well pIC50 (converted)
[6] = plus IL3, 96 well, read-out: BAF3-FGFR 3 (PLUS IL3) 96 well pIC50 (converted)

Chain of FGFR4 (h) (P22455 22-802): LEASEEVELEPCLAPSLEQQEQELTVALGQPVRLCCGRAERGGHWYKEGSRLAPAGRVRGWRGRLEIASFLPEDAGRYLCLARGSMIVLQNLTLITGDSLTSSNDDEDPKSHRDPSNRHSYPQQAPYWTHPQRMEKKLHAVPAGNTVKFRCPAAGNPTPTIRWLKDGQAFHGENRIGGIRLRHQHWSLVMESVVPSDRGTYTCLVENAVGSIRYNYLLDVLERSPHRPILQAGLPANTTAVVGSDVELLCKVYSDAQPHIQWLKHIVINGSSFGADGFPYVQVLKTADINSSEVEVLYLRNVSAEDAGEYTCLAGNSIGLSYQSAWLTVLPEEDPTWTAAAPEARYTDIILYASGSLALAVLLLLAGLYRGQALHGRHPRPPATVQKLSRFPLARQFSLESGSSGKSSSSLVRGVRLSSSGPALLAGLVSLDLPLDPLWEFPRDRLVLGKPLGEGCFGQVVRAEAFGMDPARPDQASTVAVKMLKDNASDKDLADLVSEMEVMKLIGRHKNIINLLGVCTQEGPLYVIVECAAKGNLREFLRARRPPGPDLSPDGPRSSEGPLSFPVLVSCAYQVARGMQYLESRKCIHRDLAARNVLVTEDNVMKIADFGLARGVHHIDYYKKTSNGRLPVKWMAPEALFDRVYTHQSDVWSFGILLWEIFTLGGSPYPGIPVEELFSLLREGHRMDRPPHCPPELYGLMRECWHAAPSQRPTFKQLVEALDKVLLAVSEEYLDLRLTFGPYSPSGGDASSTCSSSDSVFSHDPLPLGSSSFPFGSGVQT
Chain of Ba/F3-FGFR3-transfected cells (P22607 whole entry, change not shown): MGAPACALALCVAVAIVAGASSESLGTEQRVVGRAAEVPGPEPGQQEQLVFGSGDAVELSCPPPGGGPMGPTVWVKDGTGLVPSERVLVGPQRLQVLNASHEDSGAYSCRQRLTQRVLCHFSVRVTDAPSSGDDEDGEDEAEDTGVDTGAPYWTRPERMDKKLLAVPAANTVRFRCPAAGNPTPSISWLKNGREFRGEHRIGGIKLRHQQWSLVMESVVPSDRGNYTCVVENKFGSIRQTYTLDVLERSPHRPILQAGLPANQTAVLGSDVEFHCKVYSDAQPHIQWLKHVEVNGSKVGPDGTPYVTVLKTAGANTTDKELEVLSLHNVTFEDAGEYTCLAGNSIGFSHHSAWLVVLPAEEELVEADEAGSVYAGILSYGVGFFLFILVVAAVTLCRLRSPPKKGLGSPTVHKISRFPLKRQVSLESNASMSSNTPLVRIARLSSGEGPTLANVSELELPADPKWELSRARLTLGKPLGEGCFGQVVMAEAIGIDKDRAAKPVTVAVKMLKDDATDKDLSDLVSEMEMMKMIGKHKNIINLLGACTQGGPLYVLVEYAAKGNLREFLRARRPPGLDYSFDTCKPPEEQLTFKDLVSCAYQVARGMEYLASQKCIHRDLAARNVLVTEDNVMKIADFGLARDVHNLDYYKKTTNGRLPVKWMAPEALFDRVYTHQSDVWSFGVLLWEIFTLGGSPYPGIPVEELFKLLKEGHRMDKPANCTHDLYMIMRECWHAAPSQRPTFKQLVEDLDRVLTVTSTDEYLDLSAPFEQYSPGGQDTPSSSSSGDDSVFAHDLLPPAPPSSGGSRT

Structure (SMILES): CNc1ccc(-c2cnc3ccc(N(CCCNCC(F)(F)F)c4cc(OC)cc(OC)c4)cc3n2)cn1 [Compound 129]
- IC50 [1]: 87.1 nM
- BAF3-FGFR 3 (MIN IL3) 384 well pIC50 [2]: 5.89
- BAF3-FLT3 (MIN IL3) 384 well pIC50 ([3]; minus IL3): <5
- melting point: 165 °C
- IC50 [4, 5]: > 10000 nM

Structure (SMILES): COc1cc(OC)cc(N(CCNC(C)C)c2ccc3ncc(C(=O)NCCCN4CCCCC4)nc3c2)c1 [Compound 182]
- IC50 [1]: 603 nM
- BAF3-FGFR 3 (MIN IL3) 384 well pIC50 [2]: 5.64
- BAF3-FLT3 (MIN IL3) 384 well pIC50 ([3]; minus IL3): <5
- melting point: 121 °C
- IC50 [4, 5]: ~6920 nM

Structure (SMILES): COc1cc(OC)cc(N(CCCNCC(F)(F)F)c2ccc3ncc(-c4ccnc(Cl)c4)nc3c2)c1 [Compound 145]
- IC50 [1]: 871 nM
- BAF3-FGFR 3 (MIN IL3) 384 well pIC50 [2]: <5
- BAF3-FLT3 (MIN IL3) 384 well pIC50 ([3]; minus IL3): <5
- melting point: 130 °C
- IC50 [4, 5]: > 10000 nM

Structure (SMILES): COc1cc(OC)cc(N(CCNC(C)C)c2ccc3ncc(-n4cnc(COC(C)=O)c4)nc3c2)c1 [Compound 167]
- IC50 [1]: 31.6 nM
- BAF3-FGFR 3 (MIN IL3) 384 well pIC50 [2]: 7.09
- BAF3-FLT3 (MIN IL3) 384 well pIC50 ([3]; minus IL3): <5
- melting point: 56 °C
- IC50 [4, 5]: > 10000 nM

Structure (SMILES): COc1cc(OC)cc(N(CCO)c2ccc3ncc(C4=CCN(C(=O)OC(C)(C)C)C4)nc3c2)c1 [Compound 173]
- IC50 [1]: 100 nM
- BAF3-FGFR 3 (MIN IL3) 384 well pIC50 [2]: 6.08
- BAF3-FLT3 (MIN IL3) 384 well pIC50 ([3]; minus IL3): <5
- melting point: 142 °C
- IC50 [4, 5]: > 10000 nM

Structure (SMILES): COc1cc(OC)cc(N(CCO)c2ccc3ncc(-c4ccc(N5CCN(C(=O)OC(C)(C)C)CC5)cc4)nc3c2)c1 [Compound 156]
- IC50 [1]: 95.5 nM
- BAF3-FGFR 3 (MIN IL3) 384 well pIC50 [2]: 5.79
- BAF3-FLT3 (MIN IL3) 384 well pIC50 ([3]; minus IL3): <5
- melting point: 80 °C
- IC50 [4, 5]: > 10000 nM

Structure (SMILES): COc1cc(OC)cc(N(CC#Cc2ncccc2OC)c2ccc3ncc(-c4cccnc4)nc3c2)c1 [Compound 183]
- IC50 [1]: 427 nM
- BAF3-FGFR 3 (MIN IL3) 384 well pIC50 [2]: 7.1
- BAF3-FLT3 (MIN IL3) 384 well pIC50 ([3]; minus IL3): 5.04
- melting point: 141 °C
- IC50 [4, 5]: > 10000 nM

Structure (SMILES): COc1cc(OC)cc(N(CCO)c2ccc3ncc(-c4ccccc4CCO)nc3c2)c1 [Compound 151]
- IC50 [1]: 891 nM
- BAF3-FGFR 3 (MIN IL3) 384 well pIC50 [2]: 5.11
- BAF3-FLT3 (MIN IL3) 384 well pIC50 ([3]; minus IL3): <5
- melting point: 133 °C
- IC50 [4, 5]: > 10000 nM

Structure (SMILES): COc1cc(OC)cc(N(CCO)c2ccc3ncc(C4=CCN(C(=O)OC(C)(C)C)CC4)nc3c2)c1 [Compound 178]
- IC50 [1]: 56.2 nM
- BAF3-FGFR 3 (MIN IL3) 384 well pIC50 [2]: 6.29
- BAF3-FLT3 (MIN IL3) 384 well pIC50 ([3]; minus IL3): <5
- melting point: 150 °C
- IC50 [4, 5]: > 10000 nM

Structure (SMILES): COc1cc(OC)cc(N(CCN2CCOCC2)c2ccc3ncc(-c4ccc(N)nc4)nc3c2)c1 [Compound 169]
- IC50 [1]: 53.7 nM
- BAF3-FGFR 3 (MIN IL3) 384 well pIC50 [2]: 6.19
- BAF3-FLT3 (MIN IL3) 384 well pIC50 ([3]; minus IL3): <5
- melting point: 164 °C
- IC50 [4, 5]: > 10000 nM

Structure (SMILES): COc1cc(OC)cc(N(CCO)c2ccc3ncc(-c4ccc(N5CCNCC5)nc4)nc3c2)c1 [Compound 165]
- IC50 [1]: 28.8 nM
- BAF3-FGFR 3 (MIN IL3) 384 well pIC50 [2]: 6.12
- BAF3-FLT3 (MIN IL3) 384 well pIC50 ([3]; minus IL3): 5.38
- melting point: 171 °C
- IC50 [4, 5]: > 10000 nM

Structure (SMILES): COc1cc(OC)cc(N(CCO)c2ccc3ncc(/C(C)=N/OC(C)(C)C)nc3c2)c1 [Compound 171]
- IC50 [1]: 871 nM
- BAF3-FGFR 3 (MIN IL3) 384 well pIC50 [2]: <5
- BAF3-FLT3 (MIN IL3) 384 well pIC50 ([3]; minus IL3): <5
- melting point: 147 °C
- IC50 [4, 5]: > 10000 nM

Structure (SMILES): COc1cc(OC)cc(N(CCNC(C)C)c2ccc3ncc(-c4ccc(N5CCOCC5)nc4)nc3c2)c1 [Compound 168]
- IC50 [1]: 8.32 nM
- BAF3-FGFR 3 (MIN IL3) 384 well pIC50 [2]: ~7.15
- BAF3-FLT3 (MIN IL3) 384 well pIC50 ([3]; minus IL3): 5.13
- melting point: 135 °C
- IC50 [4, 5]: ~9330 nM

Structure (SMILES): COCC(O)CN(c1cc(OC)cc(OC)c1)c1ccc2ncc(-c3cccnc3)nc2c1 (single isomer, unassigned) [Compound 47]
- IC50 [1]: 115 nM
- BAF3-FGFR 3 (MIN IL3) 384 well pIC50 [2]: 6.3
- BAF3-FLT3 (MIN IL3) 384 well pIC50 ([3]; minus IL3): <5
- melting point: 153 °C
- BAF3-FGFR 3 (PLUS IL3) 384 well pIC50 ([4]; plus 10 ng/ml murine IL3, 384 well): <5

Structure (SMILES): COc1cc(OC)cc(N(CCO)c2ccc3ncc(C(=O)Nc4cnn(C)c4)nc3c2)c1 [Compound 184]
- IC50 [1]: 309 nM
- BAF3-FGFR 3 (MIN IL3) 384 well pIC50 [2]: 5.27
- BAF3-FLT3 (MIN IL3) 384 well pIC50 ([3]; minus IL3): <5
- melting point: 227 °C
- IC50 [4, 5]: > 10000 nM

Structure (SMILES): COc1cc(OC)cc(N(CC2CC2)c2ccc3ncc(N4CCOCC4)nc3c2)c1 [Compound 63]
- IC50 [1]: 2290 nM
- BAF3-FGFR 3 (MIN IL3) 96 well pIC50 [2]: <5
- BAF3-FGFR 3 (MIN IL3) 384 well pIC50 [2]: <5
- BAF3-FLT3 (MIN IL3) 96 well pIC50 ([3]; minus IL3, 96 well): <5
- BAF3-FLT3 (MIN IL3) 384 well pIC50 ([3]; minus IL3, 384 well): <5
- melting point: 114 °C
- IC50 [4, 6]: > 10000 nM
- IC50 ([4]; plus IL3, 384 well, read-out: BAF3-FGFR 3 (PLUS IL3) 384 well pIC50 (converted)): > 10000 nM

Structure (SMILES): COc1cc(OC)cc(N(CC2CC2)c2ccc3ncc(-c4c[nH]cn4)nc3c2)c1 [Compound 39]
- IC50 [1]: 145 nM
- BAF3-FGFR 3 (MIN IL3) 96 well pIC50 [2]: 5.51
- BAF3-FGFR 3 (MIN IL3) 384 well pIC50 [2]: 5.08
- BAF3-FLT3 (MIN IL3) 96 well pIC50 ([3]; minus IL3): <5
- BAF3-FLT3 (MIN IL3) 384 well pIC50 ([3]; minus IL3): <5
- melting point: 166 °C
- IC50 [4, 5]: > 10000 nM
- IC50 [4, 6]: > 10000 nM
